Data from ChEMBL document CHEMBL1201862, “PubChem BioAssay data set” (2004).
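Method: 48-hour compound exposure of cells in 96-well plates, five concentrations, linear interpolation of endpoints. GI50 is the concentration that inhibits growth by half.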 Activity calls are given as the source filed them. No stated cut-off is given here; in the data, active = GI50 up to about 1.1 µM and inactive = higher.

Tests used:
Experiment in all cases: NCI-60 cell line screen, 48 h
PC-3 = system: PC-3
RXF 393 = system: RXF 393
M14 = system: M14
IGROV-1 = system: IGROV-1
HL-60 = system: HL-60
UO-31 = system: UO-31
Malme-3M = system: Malme-3M
SK-MEL-2 = system: SK-MEL-2
MCF7 = system: MCF7
MDA-N = system: MDA-N
SK-OV-3 = system: SK-OV-3
HT-29 = system: HT-29
SR = system: SR
SN12C = system: SN12C
COLO 205 = system: COLO 205
HOP-92 = system: HOP-92
BT-549 = system: BT-549
SNB-75 = system: SNB-75
A549 = system: A549
SF-539 = system: SF-539

Compound	GI50 (PC-3)	GI50 (RXF 393)	GI50 (M14)	GI50 (IGROV-1)	GI50 (HL-60)	GI50 (UO-31)	GI50 (Malme-3M)	GI50 (SK-MEL-2)	GI50 (MCF7)	GI50 (MDA-N)	GI50 (SK-OV-3)	GI50 (HT-29)	GI50 (SR)	GI50 (SN12C)	GI50 (COLO 205)	GI50 (HOP-92)	GI50 (BT-549)	GI50 (SNB-75)	GI50 (A549)	GI50 (SF-539)
COC(=O)c1ccc(CCc2cc(O)c(Br)cc2O)cc1	8.02 µM (inactive)	16.6 µM (inactive)	15.6 µM (inactive)	14.6 µM (inactive)	1.86 µM (inactive)	6.47 µM (inactive)	15.7 µM (inactive)	18.9 µM (inactive)	13.5 µM (inactive)	15.7 µM (inactive)	25.4 µM (inactive)	16.8 µM (inactive)	3.2 µM (inactive)	15 µM (inactive)	12.6 µM (inactive)	12.9 µM (inactive)	4.63 µM (inactive)	26.8 µM (inactive)	19.5 µM (inactive)	8.3 µM (inactive)
CC(C)(C)OC(=O)N1CC(COS(C)(=O)=O)c2ccc(O)cc21 (stereo not given)	1.73 µM (inactive)	0.288 µM (active)	1.72 µM (inactive)	2.84 µM (inactive)	1.24 µM (inactive)	1.97 µM (inactive)	1.52 µM (inactive)	1.51 µM (inactive)	1.13 µM (inactive)	2.08 µM (inactive)	3.15 µM (inactive)	3.21 µM (inactive)	0.703 µM (active)	2.25 µM (inactive)	1.58 µM (inactive)	2.52 µM (inactive)	1.52 µM (inactive)	1.46 µM (inactive)	3.12 µM (inactive)	2.06 µM (inactive)
CN1C(=O)C(CC(=O)O)NC1=S (stereo not given)	> 100 µM (inactive)	> 100 µM (inactive)	> 100 µM (inactive)	99.5 µM (inactive)	> 100 µM (inactive)	> 100 µM (inactive)	> 100 µM (inactive)	> 100 µM (inactive)	54 µM (inactive)	> 100 µM (inactive)	> 100 µM (inactive)	> 100 µM (inactive)	> 100 µM (inactive)	> 100 µM (inactive)	> 100 µM (inactive)	> 100 µM (inactive)	> 100 µM (inactive)	> 100 µM (inactive)	> 100 µM (inactive)	> 100 µM (inactive)
COc1c(Br)cc2c(c1OC)C(Br)CCC(Br)(Br)C2=O (stereo not given)	1.44 µM (inactive)	0.706 µM (active)	0.228 µM (active)	0.482 µM (active)	0.787 µM (active)	1.37 µM (inactive)	1.89 µM (inactive)	1.1 µM (active)	0.74 µM (active)	0.242 µM (active)	2.9 µM (inactive)	0.968 µM (active)	0.0368 µM (active)	0.382 µM (active)	1.82 µM (inactive)	3.3 µM (inactive)	0.527 µM (active)	9.02 µM (inactive)	4.34 µM (inactive)	1.85 µM (inactive)
Cn1c2ccccc2c(=NNc2ccccc2C(=O)O)c2ccccc21	12.3 µM (inactive)	12.7 µM (inactive)	22.6 µM (inactive)	24.2 µM (inactive)	17 µM (inactive)	18.4 µM (inactive)	20.4 µM (inactive)	18.7 µM (inactive)	10.9 µM (inactive)	21.2 µM (inactive)	20.3 µM (inactive)	17.7 µM (inactive)	11.9 µM (inactive)	23.7 µM (inactive)	16.3 µM (inactive)	21.7 µM (inactive)	19.1 µM (inactive)	21.1 µM (inactive)	12.9 µM (inactive)	13.1 µM (inactive)
Cc1noc(C)c1-n1nc2ccc3nonc3c2n1	> 100 µM (inactive)	23 µM (inactive)	> 100 µM (inactive)	81.7 µM (inactive)	> 100 µM (inactive)	47.2 µM (inactive)	> 100 µM (inactive)	48.9 µM (inactive)	> 67.8 µM (inactive)	> 100 µM (inactive)	34.8 µM (inactive)	> 100 µM (inactive)	> 100 µM (inactive)	> 100 µM (inactive)	> 100 µM (inactive)	29.1 µM (inactive)	79.3 µM (inactive)	33.1 µM (inactive)	> 100 µM (inactive)	41.5 µM (inactive)
Cc1c(S(=O)(=O)c2ccccc2)c(N)n(Cc2ccccc2)c1C	38.2 µM (inactive)	76.6 µM (inactive)	7.08 µM (inactive)	> 100 µM (inactive)	> 100 µM (inactive)	> 100 µM (inactive)	> 100 µM (inactive)	> 100 µM (inactive)	> 100 µM (inactive)	> 100 µM (inactive)	> 100 µM (inactive)	> 100 µM (inactive)	> 100 µM (inactive)	> 100 µM (inactive)	> 100 µM (inactive)	> 100 µM (inactive)	> 100 µM (inactive)	> 100 µM (inactive)	> 100 µM (inactive)	53.1 µM (inactive)
COc1ccc(C[C@H]2NC[C@H](O)[C@H]2OC(C)=O)cc1 [ANISOMYCIN]	< 0.0191 µM (active)	0.0483 µM (active)	< 0.0136 µM (active)	0.0234 µM (active)	0.0104 µM (active)	0.0404 µM (active)	0.0552 µM (active)	0.0287 µM (active)	0.0193 µM (active)	0.0313 µM (active)	0.0398 µM (active)	< 0.0149 µM (active)	< 0.0143 µM (active)	0.0166 µM (active)	< 0.0121 µM (active)	0.016 µM (active)	0.0411 µM (active)	< 0.0106 µM (active)	0.0232 µM (active)	0.0213 µM (active)
CC(=O)O[C@@H]1CO[C@H]2O[C@H]3[C@@H](C(C=O)=C[C@H](O)[C@@H]4C5=C(C(C)C)CC[C@]5(C)CC[C@@]34C)[C@@]2(O)C1=O [STRIATIN E]	0.0968 µM (active)	0.106 µM (active)	0.262 µM (active)	0.219 µM (active)	0.0175 µM (active)	0.241 µM (active)	0.177 µM (active)	0.23 µM (active)	0.217 µM (active)	0.177 µM (active)	3.74 µM (inactive)	0.0918 µM (active)	0.146 µM (active)	0.156 µM (active)	0.0769 µM (active)	0.21 µM (active)	0.12 µM (active)	0.0736 µM (active)	0.805 µM (active)	0.177 µM (active)
